System: MV-4-11 cells
Experiment: Gene expression microarray analysis (Affymetrix PrimeView) and GSEA
Format: cell-based, human
Design: RFU PODN (11730768_x_at) / Fold change /veh PODN (11730768_x_at) / RFU LINC00158 (11744669_a_at) / Fold change /veh LINC00158 (11744669_a_at) / RFU DUSP10 (11751237_a_at) / Fold change /veh DUSP10 (11751237_a_at) / RFU ID3 (11757404_x_at) / Fold change /veh ID3 (11757404_x_at) / RFU PLEKHG5 (11737974_s_at) / Fold change /veh PLEKHG5 (11737974_s_at) / RFU LRRC4B (11730491_at) / Fold change /veh LRRC4B (11730491_at) / RFU GIMAP4 (11747438_a_at) / Fold change /veh GIMAP4 (11747438_a_at) / RFU KRT8 (11758183_x_at) / Fold change /veh KRT8 (11758183_x_at) / RFU CNN1 (11734310_a_at) / Fold change /veh CNN1 (11734310_a_at) / RFU VPS37D (11726825_at) / Fold change /veh VPS37D (11726825_at) / RFU C10orf10 (11716522_x_at) / Fold change /veh C10orf10 (11716522_x_at) / RFU KIR2DL2 /// KIR2DL4 /// KIR2DL5A /// KIR2DL5B /// KIR2DS1 /// KIR2DS2 /// KIR2DS3 /// KIR2DS4 /// KIR3DL3 /// KIR3DL3 /// KIR3DS1 (11738374_at) / Fold change /veh KIR2DL2 /// KIR2DL4 /// KIR2DL5A /// KIR2DL5B /// KIR2DS1 /// KIR2DS2 /// KIR2DS3 /// KIR2DS4 /// KIR3DL3 /// KIR3DL3 /// KIR3DS1 (11738374_at) / RFU C1QL1 (11718748_at) / Fold change /veh C1QL1 (11718748_at) / RFU TMPRSS4 (11747572_a_at) / Fold change /veh TMPRSS4 (11747572_a_at) / RFU HAMP (11756126_x_at) / Fold change /veh HAMP (11756126_x_at) / RFU RNFT2 (11725882_a_at) / Fold change /veh RNFT2 (11725882_a_at) / RFU NR4A2 (11747474_a_at) / Fold change /veh NR4A2 (11747474_a_at) / RFU ABCC12 (11746883_a_at) / Fold change /veh ABCC12 (11746883_a_at) / RFU TMEM136 (11760407_x_at) / Fold change /veh TMEM136 (11760407_x_at) / RFU CLDN22 /// WWC2 (11732394_at) / Fold change /veh CLDN22 /// WWC2 (11732394_at) / RFU HLA-DPB1 (11760878_x_at) / Fold change /veh HLA-DPB1 (11760878_x_at) / RFU SPINT1 (11716480_a_at) / Fold change /veh SPINT1 (11716480_a_at) / RFU GAP43 (11754022_s_at) / Fold change /veh GAP43 (11754022_s_at) / RFU A4GNT (11735810_at) / Fold change /veh A4GNT (11735810_at) / RFU PRB3 (11715151_x_at) / Fold change /veh PRB3 (11715151_x_at) / RFU TUBB4B (11761932_at) / Fold change /veh TUBB4B (11761932_at) / RFU CAPN14 (11732068_a_at) / Fold change /veh CAPN14 (11732068_a_at) / RFU TMCC2 (11721928_a_at) / Fold change /veh TMCC2 (11721928_a_at) / RFU IRGQ (11745062_a_at) / Fold change /veh IRGQ (11745062_a_at) / RFU FAM174B (11720279_a_at) / Fold change /veh FAM174B (11720279_a_at) / RFU TMPRSS4 (11748680_a_at) / Fold change /veh TMPRSS4 (11748680_a_at) / RFU FAM212B (11763350_a_at) / Fold change /veh FAM212B (11763350_a_at) / RFU PLEKHG5 (11743358_a_at) / Fold change /veh PLEKHG5 (11743358_a_at) / RFU ZSCAN30 (11745921_a_at) / Fold change /veh ZSCAN30 (11745921_a_at) / RFU CMKLR1 (11741424_a_at) / Fold change /veh CMKLR1 (11741424_a_at) / RFU LOC101060620 /// MAPK8IP1 (11723275_at) / Fold change /veh LOC101060620 /// MAPK8IP1 (11723275_at) / RFU SPTSSB (11747773_x_at) / Fold change /veh SPTSSB (11747773_x_at) / RFU PRSS12 (11739890_at) / Fold change /veh PRSS12 (11739890_at) / RFU BIN1 (11741810_x_at) / Fold change /veh BIN1 (11741810_x_at) / RFU WNT11 (11732464_a_at) / Fold change /veh WNT11 (11732464_a_at) / RFU C10orf10 (11716521_a_at) / Fold change /veh C10orf10 (11716521_a_at) / RFU C5orf56 (11738089_at) / Fold change /veh C5orf56 (11738089_at) / RFU CYB561 (11721691_x_at) / Fold change /veh CYB561 (11721691_x_at) / RFU ANKRD19P (11752326_a_at) / Fold change /veh ANKRD19P (11752326_a_at) / RFU OR2T12 /// OR2T33 /// OR2T8 (11738714_s_at) / Fold change /veh OR2T12 /// OR2T33 /// OR2T8 (11738714_s_at) / RFU VCAN (11748164_a_at) / Fold change /veh VCAN (11748164_a_at) / RFU JSRP1 (11732532_at) / Fold change /veh JSRP1 (11732532_at) / RFU KRTAP10-11 (11738290_x_at) / Fold change /veh KRTAP10-11 (11738290_x_at) / RFU MYO3A (11730013_a_at) / Fold change /veh MYO3A (11730013_a_at) / RFU EBF3 (11725865_a_at) / Fold change /veh EBF3 (11725865_a_at) / RFU CAMK2N1 (11719241_x_at) / Fold change /veh CAMK2N1 (11719241_x_at) / RFU C5orf56 (11738088_a_at) / Fold change /veh C5orf56 (11738088_a_at) / RFU OLFML3 (11715873_a_at) / Fold change /veh OLFML3 (11715873_a_at) / RFU LOC100653217 /// NTM (11731650_a_at) / Fold change /veh LOC100653217 /// NTM (11731650_a_at) / RFU MAPK11 (11762145_a_at) / Fold change /veh MAPK11 (11762145_a_at) / RFU FIZ1 (11724087_x_at) / Fold change /veh FIZ1 (11724087_x_at) / RFU OASL (11726364_x_at) / Fold change /veh OASL (11726364_x_at) / RFU SOX15 (11748057_x_at) / Fold change /veh SOX15 (11748057_x_at) / RFU CD79A (11719716_a_at) / Fold change /veh CD79A (11719716_a_at) / RFU HIST1H1D (11736915_at) / Fold change /veh HIST1H1D (11736915_at) / RFU CASKIN2 (11723855_a_at) / Fold change /veh CASKIN2 (11723855_a_at) / RFU LOC730098 (11760151_x_at) / Fold change /veh LOC730098 (11760151_x_at) / RFU OR4N2 (11742367_at) / Fold change /veh OR4N2 (11742367_at) / RFU PRRT2 (11749266_a_at) / Fold change /veh PRRT2 (11749266_a_at) / RFU SNX32 (11753110_a_at) / Fold change /veh SNX32 (11753110_a_at) / RFU CDHR5 (11726645_a_at) / Fold change /veh CDHR5 (11726645_a_at) / RFU RCAN1 (11760418_a_at) / Fold change /veh RCAN1 (11760418_a_at) / RFU FAM167A (11723789_a_at) / Fold change /veh FAM167A (11723789_a_at) / RFU FAM26E (11764081_at) / Fold change /veh FAM26E (11764081_at) / RFU ISYNA1 (11749810_s_at) / Fold change /veh ISYNA1 (11749810_s_at) / RFU ACY1 (11761880_at) / Fold change /veh ACY1 (11761880_at) / RFU 11764098_at / Fold change /veh 11764098_at / RFU SAMD14 (11745864_x_at) / Fold change /veh SAMD14 (11745864_x_at) / RFU NPB (11741838_a_at) / Fold change /veh NPB (11741838_a_at) / RFU TMPRSS6 (11731388_a_at) / Fold change /veh TMPRSS6 (11731388_a_at) / RFU KRTAP10-2 (11738614_at) / Fold change /veh KRTAP10-2 (11738614_at) / RFU ARHGAP8 /// PRR5-ARHGAP8 (11727945_x_at) / Fold change /veh ARHGAP8 /// PRR5-ARHGAP8 (11727945_x_at) / RFU KRTAP5-7 /// NADSYN1 (11734609_at) / Fold change /veh KRTAP5-7 /// NADSYN1 (11734609_at) / RFU RASL12 (11751679_a_at) / Fold change /veh RASL12 (11751679_a_at) / RFU CDKN2B (11736163_a_at) / Fold change /veh CDKN2B (11736163_a_at) / RFU PRF1 (11729649_at) / Fold change /veh PRF1 (11729649_at) / RFU, ZNF638 /// ZNF638-IT1 / Fold change vs veh, ZNF638 /// ZNF638-IT1 / RFU, PANK3 / Fold change vs veh, PANK3 / RFU, SH3YL1 / Fold change vs veh, SH3YL1 / RFU, ZEB2 / Fold change vs veh, ZEB2 / RFU, NRIP1 / Fold change vs veh, NRIP1 / RFU, PTTG1IP / Fold change vs veh, PTTG1IP / RFU, CAPN2 / Fold change vs veh, CAPN2 / RFU, MED14 / Fold change vs veh, MED14 / RFU, SNORA58 / Fold change vs veh, SNORA58 / RFU, C1orf63 / Fold change vs veh, C1orf63 / RFU, LRRFIP1 / Fold change vs veh, LRRFIP1 / RFU, NDUFAF7 / Fold change vs veh, NDUFAF7 / RFU, SLC12A2 / Fold change vs veh, SLC12A2 / RFU, IBTK / Fold change vs veh, IBTK / RFU, ESF1 / Fold change vs veh, ESF1 / Fold change vs veh, TMEM50B / RFU, TAOK1 / Fold change vs veh, TAOK1 / RFU, ACBD3 / Fold change vs veh, ACBD3 / RFU, TMA16 / Fold change vs veh, TMA16 / RFU, RWDD3 / Fold change vs veh, RWDD3 / RFU, BCAT1 / Fold change vs veh, BCAT1 / RFU, EDEM3 / Fold change vs veh, EDEM3 / RFU, TMEM33 / Fold change vs veh, TMEM33 / RFU, WDR75 / Fold change vs veh, WDR75 / RFU, AHCTF1 / Fold change vs veh, AHCTF1 / RFU, TFRC / Fold change vs veh, TFRC / RFU, ZDHHC17 / Fold change vs veh, ZDHHC17 / RFU, NOM1 / Fold change vs veh, NOM1 / RFU, ARL8B / Fold change vs veh, ARL8B / RFU, ZBTB11 / Fold change vs veh, ZBTB11 / RFU, TAMM41 / Fold change vs veh, TAMM41 / RFU, KIAA1704 /// LOC100996395 / Fold change vs veh, KIAA1704 /// LOC100996395 / RFU, ING1 / Fold change vs veh, ING1 / RFU, TRMT61B / Fold change vs veh, TRMT61B / RFU, FUBP3 / Fold change vs veh, FUBP3 / RFU, TP53 / Fold change vs veh, TP53 / RFU, TNKS2 / Fold change vs veh, TNKS2 / RFU, ZFP14 / Fold change vs veh, ZFP14 / RFU, ACTR2 / Fold change vs veh, ACTR2 / RFU, PPP3R1 / Fold change vs veh, PPP3R1 / RFU, PIK3R1 / Fold change vs veh, PIK3R1 / RFU, HNRNPA1 / Fold change vs veh, HNRNPA1 / RFU, RNF170 / Fold change vs veh, RNF170 / RFU, ZNF28 / Fold change vs veh, ZNF28 / RFU, RNGTT / Fold change vs veh, RNGTT / RFU, OGT / Fold change vs veh, OGT / RFU, BRD1 / Fold change vs veh, BRD1 / RFU, MARS / Fold change vs veh, MARS / RFU, ZNF655 / Fold change vs veh, ZNF655 / RFU, FAHD1 / Fold change vs veh, FAHD1 / RFU, BDP1 / Fold change vs veh, BDP1 / RFU, LRRCC1 / Fold change vs veh, LRRCC1 / RFU, ARID1A / Fold change vs veh, ARID1A / RFU, ZNF146 / Fold change vs veh, ZNF146 / RFU, ZNF330 / Fold change vs veh, ZNF330 / RFU, GPN3 / Fold change vs veh, GPN3 / RFU, C9orf123 / Fold change vs veh, C9orf123 / RFU, N4BP2L2 / Fold change vs veh, N4BP2L2 / RFU, ARFIP1 / Fold change vs veh, ARFIP1 / RFU, FAM179B / Fold change vs veh, FAM179B / RFU, BCL10 / Fold change vs veh, BCL10 / RFU, UHRF1BP1L / Fold change vs veh, UHRF1BP1L / RFU, BET1 / Fold change vs veh, BET1 / RFU, CNOT2 / Fold change vs veh, CNOT2 / RFU, ZNF268 / Fold change vs veh, ZNF268 / Fold change vs veh, ZNF507 / RFU, DGCR2 / Fold change vs veh, DGCR2 / RFU, WDSUB1 / Fold change vs veh, WDSUB1 / Fold change vs veh, HSP90B1 /// MIR3652 / RFU, ADSS / Fold change vs veh, ADSS / RFU, GK / Fold change vs veh, GK / RFU, ZNF148 / Fold change vs veh, ZNF148 / RFU, TAF9 / Fold change vs veh, TAF9 / RFU, SLC1A5 / Fold change vs veh, SLC1A5 / RFU, SLMO2 / Fold change vs veh, SLMO2 / RFU, ABCC4 / Fold change vs veh, ABCC4 / RFU, LOC101060439 /// RAP1B / Fold change vs veh, LOC101060439 /// RAP1B / RFU, RFX7 / Fold change vs veh, RFX7 / RFU, GTPBP10 / Fold change vs veh, GTPBP10 / RFU, CNEP1R1 / Fold change vs veh, CNEP1R1 / RFU, BIVM-ERCC5 /// ERCC5 / Fold change vs veh, BIVM-ERCC5 /// ERCC5 / RFU, ILF3 / Fold change vs veh, ILF3 / RFU 11762660_at / Fold change /veh 11762660_at / RFU VCAN (11757783_s_at) / Fold change /veh VCAN (11757783_s_at) / RFU DDX43 (11728927_at) / Fold change /veh DDX43 (11728927_at) / RFU KRT8 (11758188_x_at) / Fold change /veh KRT8 (11758188_x_at) / RFU NKD1 (11759106_at) / Fold change /veh NKD1 (11759106_at) / RFU SRD5A1 (11742802_a_at) / Fold change /veh SRD5A1 (11742802_a_at) / RFU TPSAB1 /// TPSB2 (11721975_s_at) / Fold change /veh TPSAB1 /// TPSB2 (11721975_s_at) / RFU GSTM3 (11746129_a_at) / Fold change /veh GSTM3 (11746129_a_at) / RFU IL23R (11737362_x_at) / Fold change /veh IL23R (11737362_x_at) / RFU TMEM51 (11727254_a_at) / Fold change /veh TMEM51 (11727254_a_at) / RFU PIWIL2 (11732686_x_at) / Fold change /veh PIWIL2 (11732686_x_at) / RFU ORM1 (11744905_x_at) / Fold change /veh ORM1 (11744905_x_at) / RFU CCDC152 (11743942_at) / Fold change /veh CCDC152 (11743942_at) / RFU ECM1 (11717891_a_at) / Fold change /veh ECM1 (11717891_a_at) / RFU IL23R (11748794_a_at) / Fold change /veh IL23R (11748794_a_at) / RFU TNFAIP8L3 (11732012_x_at) / Fold change /veh TNFAIP8L3 (11732012_x_at) / RFU MBOAT4 (11741988_at) / Fold change /veh MBOAT4 (11741988_at) / RFU 11764193_at / Fold change /veh 11764193_at / RFU TMEM53 (11763286_at) / Fold change /veh TMEM53 (11763286_at) / RFU MAGEB2 (11727129_at) / Fold change /veh MAGEB2 (11727129_at) / RFU TMEM200A (11744735_a_at) / Fold change /veh TMEM200A (11744735_a_at) / RFU CCDC152 (11751479_a_at) / Fold change /veh CCDC152 (11751479_a_at) / RFU FAM211A (11726209_a_at) / Fold change /veh FAM211A (11726209_a_at) / RFU RGS16 (11746705_a_at) / Fold change /veh RGS16 (11746705_a_at) / RFU VCAN (11755009_s_at) / Fold change /veh VCAN (11755009_s_at) / RFU RHOB (11743442_s_at) / Fold change /veh RHOB (11743442_s_at) / RFU RGS16 (11720943_a_at) / Fold change /veh RGS16 (11720943_a_at) / RFU RGS16 (11720944_at) / Fold change /veh RGS16 (11720944_at) / RFU, VPS4B / Fold change vs veh, VPS4B / RFU, CREB1 / Fold change vs veh, CREB1 / RFU, DNAJC13 / Fold change vs veh, DNAJC13 / RFU, GNAQ / Fold change vs veh, GNAQ / RFU, CDK5R1 / Fold change vs veh, CDK5R1 / RFU, ZRANB3 / Fold change vs veh, ZRANB3 / RFU, CUL4A / Fold change vs veh, CUL4A / RFU, CCNY / Fold change vs veh, CCNY / RFU, UFL1 / Fold change vs veh, UFL1 / RFU, COG3 / Fold change vs veh, COG3 / RFU, DIAPH2 / Fold change vs veh, DIAPH2 / RFU, SKA2 / Fold change vs veh, SKA2 / RFU, AFF3 / Fold change vs veh, AFF3 / RFU, LMF1 / Fold change vs veh, LMF1 / RFU, IPO11 / Fold change vs veh, IPO11 / RFU, DFFB / Fold change vs veh, DFFB / RFU, FOXP1 / Fold change vs veh, FOXP1 / RFU, CARD8 / Fold change vs veh, CARD8 / RFU, STRN3 / Fold change vs veh, STRN3 / RFU, ADK / Fold change vs veh, ADK / RFU, RASSF2 / Fold change vs veh, RASSF2 / RFU, WIPF1 / Fold change vs veh, WIPF1 / RFU, LARP1B / Fold change vs veh, LARP1B / RFU, RASA1 / Fold change vs veh, RASA1 / RFU, RB1 / Fold change vs veh, RB1 / RFU, PPFIA1 / Fold change vs veh, PPFIA1 / RFU, MAT2A / Fold change vs veh, MAT2A / RFU, CCT5 / Fold change vs veh, CCT5 / RFU, WDR92 / Fold change vs veh, WDR92 / RFU, CUX1 / Fold change vs veh, CUX1 / RFU, TTC7A / Fold change vs veh, TTC7A / RFU, TMEM135 / Fold change vs veh, TMEM135 / RFU, DEPTOR / Fold change vs veh, DEPTOR / RFU, CPM / Fold change vs veh, CPM / RFU, DNAJB6 / Fold change vs veh, DNAJB6 / RFU, CACNA2D3 / Fold change vs veh, CACNA2D3 / RFU, DTX4 / Fold change vs veh, DTX4 / RFU, TFCP2 / Fold change vs veh, TFCP2 / RFU, GMCL1 /// GMCL1P1 / Fold change vs veh, GMCL1 /// GMCL1P1 / RFU, AEBP2 / Fold change vs veh, AEBP2 / RFU, SNHG1 /// SNORD22 /// SNORD25 /// SNORD26 /// SNORD27 /// SNORD28 /// SNORD29 /// SNORD31 / Fold change vs veh, SNHG1 /// SNORD22 /// SNORD25 /// SNORD26 /// SNORD27 /// SNORD28 /// SNORD29 /// SNORD31 / Fold change (Aza/veh), C12orf56 (ProbeSet 11735607_a_at) / Fold change (ACY-1035/veh), C12orf56 (ProbeSet 11735607_a_at) / Fold change (Aza/veh), FGFR1OP (ProbeSet 11751329_s_at) / Fold change (ACY-1035/veh), FGFR1OP (ProbeSet 11751329_s_at) / Fold change (Aza/veh), VPS36 (ProbeSet 11739960_a_at) / Fold change (ACY-1035/veh), VPS36 (ProbeSet 11739960_a_at) / RFU SYPL1 (11715823_x_at) / Fold change /veh SYPL1 (11715823_x_at) / RFU IGFBP7 (11715501_s_at) / Fold change /veh IGFBP7 (11715501_s_at) / RFU REEP3 (11722064_at) / Fold change /veh REEP3 (11722064_at) / RFU IGLL1 (11728026_x_at) / Fold change /veh IGLL1 (11728026_x_at): dose or concentration left out as unconfirmed
Conditions: ProbeSet 11719185_x_at; LIST B

In the case of `Nc1ncn([C@@H]2O[C@H](CO)[C@@H](O)[C@H]2O)c(=O)n1` [azacitidine], the “Fold change vs veh, N4BP2L2” value is reported as 0.90.

From PMC5218480 (PLoS ONE, 2017)
